This is an account of results in US20100279941A1, “CD36 MODULATION AND USES THEREOF” (priority 2009, published 2010).

For one experiment, the system named is Akt. Nature of the experiment: Western blot of left ventricle: phosphorylated Akt to total Akt. It is filed as in vivo, mice. On the procedure: Experimental model of IHD: Transient left coronary artery ligation in vivo. Mice were subjected to a transient LCAL surgery as described before, with minor modifications [Tarnayski et al., 2004]. Mice were injected i.p. with buprenorphine (0.05 mg/kg) and placed in an induction chamber with inhalation anesthesia comprised of 3% isoflurane mixed with 100% oxygen. Mice were intubated with a blunt ended 20-gauge catheter into the trachea via the mouth and mechanically ventilated at a tidal volume of 7 ml/kg at 130 respirations/min with a MiniVent™ mouse ventilator (model 845, Harvard Apparatus, Saint-Laurent, QC, Canada). Anesthesia was maintained with 1.5-2% isoflurane and the animals were kept warm using electrical heating pads during the surgical procedure. The chest was opened by a horizontal incision through the skin and muscle layers at the third intercostal space exposing the left side of the heart. […] Visual blanching distal to the coronary occlusion confirmed myocardial ischaemia. Lidocaine (6 mg/kg) was administered i.p. just following occlusion and prior to reperfusion. After 30 minutes, the PE10 tubing was removed allowing reperfusion. The lungs were reinflated and the chest wound closed layer by layer before extubation. […] Hearts were immediately frozen at −80° C. unless otherwise stated.
Western blot analysis. Total ventricular protein lysates were prepared as described previously [Bodart et al., 2002]. Left ventricles were homogenized in PBS containing a protease inhibitor cocktail (Roche Applied Science, Indianapolis, Ind., USA) and 1 mM sodium orthovanadate. Homogenates were incubated for 10 min on ice with an equal volume of lysis buffer (NaCl 300 mM, Tris-HCl 100 mM, 2% Triton X-100, 0.2% SDS, 50 mM NaF, 4 mM EDTA, 1 mM sodium orthovanadate and protein inhibitors, pH=7.5), and centrifuged at 14,000 g for 30 minutes at 4° C. The protein concentration of the su pernatant was determined by the bicinchoninic acid (BCA) protein assay (Pierce Biotechnology, Rockford, Ill., USA). Equal amounts (50 or 100 μg) of protein extracts were separated on 10% SDS-polyacrylamide gels and transferred electrophoretically to polyvinylidene difluoride (PVDF) membranes (Bio-Rad Laboratories, Hercules, Calif., USA) for immunoblotting. […] Antibody binding was detected by enhanced chemiluminescence using an alpha Imager™ (Alpha Innotech Corporation, San Leandro, Calif., USA). Quantification of the digital images obtained was performed using ImageQuant™ 5.2 software (Molecular Dynamics, Sunnyvale, Calif., USA).

A further experiment relates to C57BL/6 mice. In words: Blood lactate after transient ischemia. It is filed as in vivo. To be noted: 6-hour reperfusion; 2 weeks 289 nmol/kg; P<0.05 compared to vehicle. The procedure: C57BU6 mice were bred in house. Male mice, aged 23 (±1) weeks, were used for experiments. They were fed standard chow (#5075, Charles Rivers, Saint-Constant, Québec, Canada) and water ad libitum, and housed singly during treatment periods (2 weeks). Daily pharmacological treatments with 300 μg/kg (289 nmol/kg) of EP 80317 or 289 nmol/kg of CP-3(IV), 289 nmol/kg of CP-AP-4 or vehicle (0.9% NaCl) were done by subcutaneous (s.c.) injections.
Experimental model of IHD: Transient left coronary artery ligation in vivo. Mice were subjected to a transient LCAL surgery as described before, with minor modifications [Tarnayski et al., 2004]. Mice were injected i.p. with buprenorphine (0.05 mg/kg) and placed in an induction chamber with inhalation anesthesia comprised of 3% isoflurane mixed with 100% oxygen. Mice were intubated with a blunt ended 20-gauge catheter into the trachea via the mouth and mechanically ventilated at a tidal volume of 7 ml/kg at 130 respirations/min with a MiniVent™ mouse ventilator (model 845, Harvard Apparatus, Saint-Laurent, QC, Canada). Anesthesia was maintained with 1.5-2% isoflurane and the animals were kept warm using electrical heating pads during the surgical procedure. The chest was opened by a horizontal incision through the skin and muscle layers at the third intercostal space exposing the left side of the heart. […] Visual blanching distal to the coronary occlusion confirmed myocardial ischaemia. Lidocaine (6 mg/kg) was administered i.p. just following occlusion and prior to reperfusion. After 30 minutes, the PE10 tubing was removed allowing reperfusion. The lungs were reinflated and the chest wound closed layer by layer before extubation. At 6 hours following reperfusion, mice were anesthetized (isoflurane), a blood sample withdrawn, and the heart arrested in diastole by an intravenous injection of 1 M KCl (0.5 mL). Hearts were immediately frozen at −80° C. unless otherwise stated.
Blood lactate. Blood lactate was determined using the Lactate Pro Analyser (FaCT Canada Consulting Ltd, Quesnel, BC, Canada), according to the manufacturer's instructions.

As for “HAIC-2MeDTrp-DLys-Trp-DPhe-Lys-NH2 [EP 80317]”, the “increase of P-Akt to total Akt band density ratio” value with Akt (6 hours reperfusion, CD36^+/+ mice, p<0.01) is recorded as 57%. In the experiment with Akt (6 hours reperfusion, CD36^−/− mice, in words), the “effect on P-Akt/Akt ratio” value is reported as “no effect”. Moreover, the “increase of P-Akt/Akt density ratio” value with Akt (48 hours reperfusion, CD36^+/+ mice, p<0.01) amounted to 89%. The “effect on Akt phosphoprotein signal” value with Akt (48 hours reperfusion, genotype not printed in the sentence (FIG. 7D), in words) was “no significant effect”. Further, the “reduction of lactate concentration in blood” value in the experiment on C57BL/6 mice worked out at 34%.
